Patent US10479780B2, “Aminopyrazole derivatives” (Chugai Seiyaku Kabushiki Kaisha, priority 2015, dated 2019)
pIC50: −log10 of the molar value.

Experiments:
Assay type in all cases: biochemical
[1] = molecular target: T1, human Src enzyme (Homo sapiens, UniProt P12931); assay: Src enzyme inhibitory activity (time-resolved fluorometry, biotinylated peptide phosphorylation); settings: biotinylated peptide phosphorylation, read-out: SRC_IC50
T1 construct: purchased Carna Biosciences, Inc. 08-173
Method in brief: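 Compounds were tested for blocking tyrosine phosphorylation of a biotinylated peptide substrate by recombinant human Src. Phosphorylated product was quantified by time-resolved fluorometry using europium cryptate and XL665 conjugates, and IC50 was calculated against the compound-free control.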

[2] = molecular target: T2, human Lck enzyme (Homo sapiens, UniProt P06239); assay: Lck enzyme inhibitory activity (time-resolved fluorometry, biotinylated peptide phosphorylation); settings: biotinylated peptide phosphorylation, read-out: LCK_IC50
T2 construct: purchased Carna Biosciences, Inc. 08-170
T2 sequence (P06239 whole entry): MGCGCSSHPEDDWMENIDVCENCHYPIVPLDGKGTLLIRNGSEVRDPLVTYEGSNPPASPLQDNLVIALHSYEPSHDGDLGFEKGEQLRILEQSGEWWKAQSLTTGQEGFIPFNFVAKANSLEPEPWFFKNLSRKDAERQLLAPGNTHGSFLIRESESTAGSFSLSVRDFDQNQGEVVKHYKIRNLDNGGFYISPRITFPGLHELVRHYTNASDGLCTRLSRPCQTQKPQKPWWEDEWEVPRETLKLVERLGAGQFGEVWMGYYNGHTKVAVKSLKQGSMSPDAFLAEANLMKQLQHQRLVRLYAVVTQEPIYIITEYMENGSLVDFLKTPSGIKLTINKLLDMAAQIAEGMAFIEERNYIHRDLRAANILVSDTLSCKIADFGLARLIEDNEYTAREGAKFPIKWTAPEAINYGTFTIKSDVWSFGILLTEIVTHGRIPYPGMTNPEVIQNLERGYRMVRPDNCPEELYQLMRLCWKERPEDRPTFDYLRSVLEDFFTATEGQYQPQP
Method in brief: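 Readout pairs a europium cryptate-labelled anti-phosphotyrosine antibody with XL665-streptavidin, measured by time-resolved fluorescence. IC50 derived from percent inhibition against untreated controls.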

[3] = molecular target: T3, human Yes1 enzyme (Homo sapiens, UniProt P07947); assay: Yes1 enzyme inhibitory activity (time-resolved fluorometry, biotinylated peptide phosphorylation); settings: biotinylated peptide phosphorylation, read-out: YES_IC50
T3 construct: made in house
T3 sequence (P07947 whole entry): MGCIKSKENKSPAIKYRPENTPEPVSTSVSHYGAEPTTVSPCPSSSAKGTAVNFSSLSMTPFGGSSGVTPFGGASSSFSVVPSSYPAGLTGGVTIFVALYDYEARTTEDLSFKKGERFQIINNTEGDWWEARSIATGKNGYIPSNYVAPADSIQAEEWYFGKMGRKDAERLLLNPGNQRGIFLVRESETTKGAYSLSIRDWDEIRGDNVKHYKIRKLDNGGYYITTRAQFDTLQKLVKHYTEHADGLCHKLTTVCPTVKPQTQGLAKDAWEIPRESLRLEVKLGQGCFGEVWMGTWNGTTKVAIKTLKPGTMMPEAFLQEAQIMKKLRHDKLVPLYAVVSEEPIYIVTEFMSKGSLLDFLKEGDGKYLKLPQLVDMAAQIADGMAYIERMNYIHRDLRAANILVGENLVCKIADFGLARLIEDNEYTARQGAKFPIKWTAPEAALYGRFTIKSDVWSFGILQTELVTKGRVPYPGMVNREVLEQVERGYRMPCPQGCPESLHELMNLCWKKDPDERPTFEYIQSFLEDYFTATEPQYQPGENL
Method in brief: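 Inhibition was expressed against a compound-free control to give IC50, using TR-FRET read-out (Eu-cryptate anti-pTyr antibody, streptavidin-XL665).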

T1 sequence (P12931 whole entry): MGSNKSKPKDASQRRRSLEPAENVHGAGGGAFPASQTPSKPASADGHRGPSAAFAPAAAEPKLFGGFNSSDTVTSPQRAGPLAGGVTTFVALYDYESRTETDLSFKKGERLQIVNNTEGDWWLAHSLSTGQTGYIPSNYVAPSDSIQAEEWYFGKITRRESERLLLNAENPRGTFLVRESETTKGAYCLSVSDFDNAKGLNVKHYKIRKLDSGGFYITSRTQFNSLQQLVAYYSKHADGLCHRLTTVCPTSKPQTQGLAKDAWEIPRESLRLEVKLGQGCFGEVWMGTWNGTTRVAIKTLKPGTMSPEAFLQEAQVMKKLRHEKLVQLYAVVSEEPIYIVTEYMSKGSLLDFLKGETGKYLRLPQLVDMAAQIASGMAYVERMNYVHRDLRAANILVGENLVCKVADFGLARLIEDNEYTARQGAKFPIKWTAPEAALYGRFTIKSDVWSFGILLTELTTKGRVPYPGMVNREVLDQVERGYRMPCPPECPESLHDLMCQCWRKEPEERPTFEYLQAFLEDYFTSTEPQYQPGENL

Row | SMILES | pIC50 [1] | pIC50 [2] | pIC50 [3]
1 | Cc1cc(Oc2ccccc2F)cc(F)c1-n1ncc(C(=O)c2cc3cc(OC(F)F)c(NC4CN(S(C)(=O)=O)C4)cc3[nH]2)c1N [Example 4-23-024, [5-amino-1-[2-fluoro-4-(2-fluorophenoxy)-6-methylphenyl]pyrazol-4-yl]-[5-(difluoromethoxy)-6-[(1-methylsulfonylazetidin-3-yl)amino]-1H-indol-2-yl]methanone] | 7.28 | 7.89 | 8.14
2 | Cc1cc(Oc2ccccc2F)ncc1-n1ncc(C(=O)c2cc3cc(OC(F)F)c(NC4CCN(S(C)(=O)=O)CC4)cc3[nH]2)c1N [Example 4-23-026, [5-amino-1-[6-(2-fluorophenoxy)-4-methylpyridin-3-yl]pyrazol-4-yl]-[5-(difluoromethoxy)-6-[(1-methylsulfonylpiperidin-4-yl)amino]-1H-indol-2-yl]methanone] | 7.30 | 7.72 | 8.35
3 | Cc1cc(Oc2ccccc2F)cc(F)c1-n1ncc(C(=O)c2cc3cc(OCC(F)F)c(NC4CN(S(C)(=O)=O)C4)cc3[nH]2)c1N [Example 4-23-027, [5-amino-1-[2-fluoro-4-(2-fluorophenoxy)-6-methylphenyl]pyrazol-4-yl]-[5-(2,2-difluoroethoxy)-6-[(1-methylsulfonylazetidin-3-yl)amino]-1H-indol-2-yl]methanone] | 7.80 | 8.12 | 8.72
4 | Cc1cc(Oc2ccccc2F)ccc1-n1ncc(C(=O)c2cc3cc(OC(F)F)c(-n4c(C)cc(=O)[nH]c4=O)cc3[nH]2)c1N [Example 4-23-031, 1-[2-[5-amino-1-[4-(2-fluorophenoxy)-2-methylphenyl]pyrazole-4-carbonyl]-5-(difluoromethoxy)-1H-indol-6-yl]-6-methylpyrimidine-2,4-dione] | 7.85 | 8.28 | 8.82

Other lines, results leading:

Row | pIC50 [1] | pIC50 [2] | pIC50 [3] | SMILES
5 | 7.77 | 8.24 | 9.35 | Cc1cc(Oc2ccccc2F)ccc1-n1ncc(C(=O)c2cc3cc(OC(F)F)c(NC4CN(S(C)(=O)=O)C4)cc3[nH]2)c1N [Example 4-23-023, [5-amino-1-[4-(2-fluorophenoxy)-2-methylphenyl]pyrazol-4-yl]-[5-(difluoromethoxy)-6-[(1-methylsulfonylazetidin-3-yl)amino]-1H-indol-2-yl]methanone]
6 | 7.52 | 8.25 | 8.74 | Cc1cc(Oc2ccccc2F)ncc1-n1ncc(C(=O)c2cc3cc(OC(F)F)c(NC4CN(S(C)(=O)=O)C4)cc3[nH]2)c1N [Example 4-23-025, [5-amino-1-[6-(2-fluorophenoxy)-4-methylpyridin-3-yl]pyrazol-4-yl]-[5-(difluoromethoxy)-6-[(1-methylsulfonylazetidin-3-yl)amino]-1H-indol-2-yl]methanone]
7 | 7.15 | 7.39 | 7.70 | Cc1cc(Oc2ccccc2F)cc(F)c1-n1ncc(C(=O)c2cc3cc(OCC(F)F)c(NC4CCN(S(C)(=O)=O)CC4)cc3[nH]2)c1N [Example 4-23-028, [5-amino-1-[2-fluoro-4-(2-fluorophenoxy)-6-methylphenyl]pyrazol-4-yl]-[5-(2,2-difluoroethoxy)-6-[(1-methylsulfonylpiperidin-4-yl)amino]-1H-indol-2-yl]methanone]
8 | 7.47 | 8.21 | 8.33 | Cc1cc(Oc2c(F)cccc2F)ncc1-n1ncc(C(=O)c2cc3cc(OCC(F)F)c(-n4c(C)cc(=O)[nH]c4=O)cc3[nH]2)c1N [Example 4-23-029, 1-{2-{5-amino-1-[6-(2,6-difluorophenoxy)-4-methylpyridin-3-yl]pyrazole-4-carbonyl}-5-(2,2-difluoroethoxy)-1H-indol-6-yl}-6-methylpyrimidine-2,4-dione]
9 | 8.19 | 8.42 | 8.85 | Cc1cc(Oc2ccccc2F)ccc1-n1ncc(C(=O)c2cc3cc(OCC(F)F)c(-n4c(C)cc(=O)[nH]c4=O)cc3[nH]2)c1N [Example 4-23-030, 1-[2-[5-amino-1-[4-(2-fluorophenoxy)-2-methylphenyl]pyrazole-4-carbonyl]-5-(2,2-difluoroethoxy)-1H-indol-6-yl]-6-methylpyrimidine-2,4-dione]
